Laboratory results from patent publication US12178825B2, “Method and compositions for forming a copper-containing complex and uses thereof” (COLD SPRING HARBOR LABORATORY, priority 2017, dated 2024).
Where two headings read alike, the source gives them in different places.

Experiments:
[1] = target: T1, PTP1B1-405 (Homo sapiens, UniProt P18031); test: PTP1B phosphatase activity assay, DiFMUP substrate, long form; assay type: biochemical
T1 construct: PTP1B1-405 (the long form of PTP1B which contains the extended C-terminal segment); made in house; host or cells: Escherichia coli BL21 (DE3)-RIL
T1 sequence (P18031 1-405): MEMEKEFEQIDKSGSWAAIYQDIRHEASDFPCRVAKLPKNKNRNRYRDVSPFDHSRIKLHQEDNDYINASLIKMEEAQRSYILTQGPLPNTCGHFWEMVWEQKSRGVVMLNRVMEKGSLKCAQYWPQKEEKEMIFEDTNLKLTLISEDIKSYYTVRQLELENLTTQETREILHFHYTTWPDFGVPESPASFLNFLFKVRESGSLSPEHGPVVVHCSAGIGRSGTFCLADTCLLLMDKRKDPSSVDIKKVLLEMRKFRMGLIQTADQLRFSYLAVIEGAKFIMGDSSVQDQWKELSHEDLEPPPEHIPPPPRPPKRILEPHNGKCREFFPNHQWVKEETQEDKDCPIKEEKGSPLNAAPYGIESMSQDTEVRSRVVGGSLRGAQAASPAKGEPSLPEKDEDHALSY
Experimental: (§1) All common reagents were obtained from Thermo Fisher Scientific (Waltham, MA) or Sigma-Aldrich (St. Louis, MO). Difluoro-4-methylumbelliferyl phosphate (DiFMUP) was obtained from Invitrogen (cat #D22065). Solid black 384-well plates (cat #3573) for phosphatase assays were from Corning Incorporated (Corning, NY).
(§2) Wild-type PTP1B containing a His-tag was expressed in Escherichia coli BL21 (DE3)-RIL using LB. Cells were resuspended in lysis buffer (50 mM Hepes pH 7.2, 150 mM NaCl, 10 mM imidazole, 2 mM TCEP) with cOmplete EDTA-free Protease Inhibitor Cocktail (Roche), and then lysed using a sonicator at 4° C. Lysates were clarified by centrifugation. Initial protein purification was by gravity flow, nickel column chromatography. Protein was used immediately or stored at −80° C. in 50 mM HEPES pH 7.4, 100 mM NaCl, 2 mM dithiothreitol and 25% glycerol.

[2] = target: T2, PTP1B1-321 (Homo sapiens, UniProt P18031); test: PTP1B phosphatase activity assay, short form; assay type: biochemical
T2 construct: C-terminally truncated PTP1B (1-321); made in house; host or cells: Escherichia coli BL21 (DE3)-RIL
T2 sequence (P18031 1-321): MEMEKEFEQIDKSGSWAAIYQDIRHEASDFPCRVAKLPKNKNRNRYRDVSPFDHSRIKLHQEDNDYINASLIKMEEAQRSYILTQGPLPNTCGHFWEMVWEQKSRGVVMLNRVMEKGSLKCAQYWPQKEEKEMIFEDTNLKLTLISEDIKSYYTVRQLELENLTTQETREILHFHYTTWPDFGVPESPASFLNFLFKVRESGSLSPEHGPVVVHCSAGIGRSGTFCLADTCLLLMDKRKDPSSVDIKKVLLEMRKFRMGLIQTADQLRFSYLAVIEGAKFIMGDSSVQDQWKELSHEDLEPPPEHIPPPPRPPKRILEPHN
Experimental: as §1, §2

[3] = system: TNBC cells; test: Annexin V and propidium iodide staining; assay type: cell-based
Experimental: Cells (1×10^5) were plated in six-well plates in growth medium. The cells were untreated or treated with DPM-1001 (2 μM). Following which, cells were washed with cold PBS twice and resuspended in 0.1 M Hepes/NaOH (pH 7.4), 1.4 M NaCl, 25 mM CaCl2). To the cell suspension 5 μl of fluorescein isothiocynate (FITC)-conjugated annexin V (0.1 mg/ml) and propidium iodide (1 mg/ml) were added and the samples were incubated in dark for 30 minutes at room temperature. The samples were analyzed by flow cytometry (Becton Dickinson LSRII Cell Analyzer).

[4] = ESI-MS analysis of complex formation with copper salts; assay type: binding
Experimental: Eight equivalents of M(NO3)2·xH2O or MSO4·xH2O (M=Cu, Zn) were reacted with 1 eq. of DPM-1001 (1 mM in H2O). The reaction solutions were stirred at RT, 40° C. and 80° C. for 2 h. Mass spectra were recorded on a Bruker Esquire 6000 HCT quadrupole ion trap instrument (Bruker Daltonik GmbH, Leipzig, Germany), equipped with an electrospray ionization (ESI) source. Generation of the molecular formula of the DPM-1001/Cu(II) species and the comparison between the theoretical (simulated) and the measured isotopic patterns was performed using the DataAnalysis 4.0 software (Bruker).
Eight equivalents of M(NO3)2·xH2O or MSO4·xH2O were reacted with 1 eq. of DPM-1001, DPM-1003 or analog 2 (1 mM in H2O). The reaction solutions were stirred at RT, 40° C. and 80° C. for 2 h. Each sample was diluted 5-fold in 50% methanol, 0.1% formic acid and loaded into a 500 μL syringe. A Thermo Vantage triple quadrupole mass spectrometer (Thermo Scientific), equipped with an HESI spray source was coupled to an Accela HPLC system (Thermo Scientific). Mobile phase A consisted of 0.1% formic acid and mobile phase B consisted of 0.1% formic acid in methanol. Isocratic flow was set to 50% B at 200 μL/min. 200 μl samples were injected into the LC flow line via syringe pump at 10 μL/min and electrosprayed into the Vantage triple quadrupole mass spectrometer. A spray voltage of 4.3 kV was used along with a capillary temperature of 350° C. Each full MS scan was 0.5 s and data were collected with a scan range of 200 m/z to 900 m/z over 1 min.
Binding of compounds of Formula I other than DPM-1001 was also confirmed. In an ESI-MS test, compound DPM-1013 as hydrochloride salt was dissolved in distilled water at a concentration of 2 mM freshly before testing. It was then mixed with an equal volume copper sulfate (16 mM) or copper chloride solution (16 mM) for 2 h, rendering a concentration of DPM-1013 at 1 mM and the copper salt 8 mM. The mixture was then further diluted 100-fold before injection into an ESI-MS, making a final concentration of DPM-1013 of 10 μM and Cu 80 μM in the test.
Binding percentage=peak intensity of all DPM-1013-Cu complex/(peak intensity of all DPM-1013-Cu complex+peak intensity of free DPM-1013).

[5] = enzyme-inhibitor complex diluted, activity recovery monitored

SMILES: COC(=O)CCC(C)C1CCC2C3C(O)CC4CC(NCCCCNCc5ccccn5)CCC4(C)C3CCC12C (centres unmarked) [DPM-1001]
- IC50 ([1]; after a 30 minute pre-incubation, read-out: IC50 for PTP1B1-405): 0.1 µM
- IC50 ([1]; compound pre-incubated with PTP1B, read-out: IC50, inhibition of PTP1B): 0.1 µM
- reversibility of inhibition of PTP1B1-405 [1, 5]: remained inactive over an extended period of time
- IC50 ([1]; long form PTP1B1-405, DiFMUP substrate (FIG. 1), read-out: IC50, inhibition of the phosphatase): 0.1 µM
- IC50 ([1]; no pre-incubation, read-out: IC50 for PTP1B1-405): 0.6 µM
- time dependence of inhibition of PTP1B1-405 ([1]; presence of catalase): no obvious time dependence of inhibition
- time dependence of inhibition of PTP1B1-405 ([1]; presence or absence of PRX1): time-dependent increase in potency
- reversibility of inhibition of PTP1B1-321 [2, 5]: reversibly
- time dependent change in the IC50 for PTP1B1-321 ([2]; varying incubation times): no obvious time dependent change
- mechanism of reduced cell survival [3]: due to promoting death of these cells
- complex formation with copper [4]: Formed a Stable Complex with Copper(II)
